Data published in patent US12622892B2, “Methods for treating endometriosis” (THE TEXAS A&M UNIVERSITY SYSTEM, priority 2020, dated 2026).

What was measured:
NR4A1 [1] = target: T1, NR4A1 (Homo sapiens, UniProt P22736); assay: Luciferase assay, NR4A1/NBRE-luc in ESECT-7 cells; type: cell-based; details: ESECT-7 cells transfected with NR4A1/NBRE-luc; 18 hr treatment; FIG. 2A
T1 construct: expressed in transfected cells; host or cells: ESECT-7 patient-derived endometriotic cells
Description: (§1) Luciferase assay: ESECT-7 and ESECT-40 cells were plated on 12-well plates in DMEM/F12 supplemented with 2.5% charcoal-stripped FBS. After overnight attachment and growth, various amounts of DNA [i.e., UASx5-Luc (500 ng), GAL4-NR4A1 (50 ng), NBREx3-Luc (800 ng), NurREx3-Luc (800 ng) and Flag-NR4A1 (80 ng)] were co-transfected into each well using Lipofectamine 2000 reagent (Invitrogen, Carlsbad, CA) according to the manufacturer's protocol. After 6 hr of transfection, cells were treated with plating medium (as above) containing either solvent (DMSO) or indicated concentrations of the compound for 18 hr. Cells were then lysed and cell extracts were used for chemiluminescence quantification of luciferase activity. Luciferase activity values were normalized against corresponding protein concentration values determined by Bradford assay. Both GAL4- and Flag-NR4A1 constructs contain full-length NR4A1 coding sequence and all the plasmids used in this study were previously described.

GAL4-NR4A1 = target: T2, GAL4-NR4A1 (Homo sapiens, UniProt P22736); assay: Luciferase assay, GAL4-NR4A1 chimera/UAS-luc in ESECT-7 cells; type: cell-based; details: ESECT-7 cells transfected with GAL4-NR4A1 chimera/UAS-luc; 18 hr treatment; FIG. 2A
T2 construct: GAL4 (fusion partner); expressed in transfected cells; host or cells: ESECT-7 patient-derived endometriotic cells
Description: as §1

NESC and EESC cells = details: Zeng et al. 2018; cited from earlier work
ESECT-7 cells [2] = assay: Annexin V staining, ESECT-7; type: cell-based, human; details: 10 μM DIM-C-pPhOH-3-Cl-5-OCH3, 25 μM DIM-C-pPhOH, FIG. 3A
Description: (§2) Annexin V staining: ESECT-7 and ESECT-40 cells were seeded in Nunc chambered cover glass followed by various drug treatments. The cells were then washed with ice-cold PBS, and 5 μL Alexa Fluor® 488 Annexin V with 100 μg/mL PI (as per the manufacturer's instructions) were added to the cells and incubated for 15 min, and the cells were observed using a Zeiss confocal fluorescence microscope.

NEM cells [3] = assay: Annexin V staining, NEM cells; type: cell-based, human; details: 25 μM DIM-C-pPhOH, 10 μM DIM-C-pPhOH-3-Cl-5-OCH3, vs DMSO control, FIG. 4C
ESECT-40 cells [4] = assay: Annexin V staining, ESECT-40; type: cell-based, human; details: 10 μM DIM-C-pPhOH-3-Cl-5-OCH3, 25 μM DIM-C-pPhOH, FIG. 3B
Description: as §2

NR4A1 [5] = target: T3, NR4A1 (Mus musculus, UniProt P12813); details: C2C12 muscle cells; cited from earlier work
T3 construct: endogenous in cells; host or cells: C2C12 muscle cells

ESECT-40 cells [6] = assay: Cell proliferation assay (MTT), ESECT-40; type: cell-based, human; details: 24 hr; 5-10 μM DIM-C-pPhOH-3-Cl-5-OCH3, 15-25 μM DIM-C-pPhOH; FIG. 2C
Description: (§3) Primary human endometriotic stromal cells from endometriosis patients: Ovarian endometrioma were isolated from endometriosis patients in the proliferative phase following the IRB-approved protocol. Isolated ectopic lesions were digested with collagenase type 3 (300 μg/ml) and DNaseI (40 μg/ml) for 90 min at 37° C., and then tissues were filtered through 150, 100, and 40 μm sieves to isolate endometrial stromal cells. The collected endometrial stromal cells were cultured in DMEM/F12 with 10% FBS plus 1× antibiotic/antimycotic solution and then validated by flow cytometry with a CD90 antibody (a mesenchymal marker). Henceforth, we refer to the stromal cells as ectopic endometrium isolated ovarian endometrioma (ESECT). As the control, primary normal endometrial stromal cells isolated from the biopsy of the eutopic endometrium of normal women (NEM) in the proliferative phase. All cells were incubated at 37° C. in CO2 incubator in an atmosphere of humidified 5% CO2 and 95% air.
(§4) Cell proliferation assay: Patient-derived endometriotic cells ESECT-7 and ESECT-40 were seeded into a 96-well plate, and the cells were then treated for 24 hr with either DMSO or different concentrations of DIM-C-pPhOH and DIM-C-pPhOH-3-Cl-5-OCH3. […] Dimethyl sulfoxide (DMSO) was added and incubated at […] for 10 min, and absorbance was measured at 570 nm.

NEM cells [7] = assay: Cell growth, normal endometrial NEM cells; type: cell-based, human; details: 24 hr; 15-25 μM DIM-C-pPhOH, 5-10 μM DIM-C-pPhOH-3-Cl-5-OCH3; vs DMSO control; FIG. 4A
Description: as §3, §4

IHEECs = assay: Expression of fibrosis markers in IHEECs; type: cell-based, human; details: 24 hours, vs control, FIG. 6B
NEM cells [8] = assay: Western blotting of growth promoting and proapoptotic gene products, NEM cells; type: cell-based, human
ESECT-7 cells [9] = assay: Cell proliferation assay (MTT), ESECT-7; type: cell-based, human; details: 24 hr; 5-10 μM DIM-C-pPhOH-3-Cl-5-OCH3, 15-25 μM DIM-C-pPhOH; FIG. 2C
Description: as §3, §4

ESECT-7 cells [10] = assay: α-SMA immunofluorescence, ESECT-7; type: cell-based, human; details: vs control, FIG. 5A
Description: Immunofluorescence: ESECT-7 and ESECT-40 cells were seeded in Nunc chambered cover-glass followed by various drug treatments. The cells were fixed with 4% paraformaldehyde in PBS for 20 minutes at 37° C. Cells were then blocked and incubated overnight with primary α-SMA antibody in the buffer (5% bovine serum albumin in PBS) at 4° C., followed by incubation with Alexa Fluor conjugated secondary antibody at a dilution of 1:250 for 2 hours at room temperature. Finally, cells were observed using a Zeiss confocal fluorescence microscope.

ESECT-7 cells [11] = assay: Quantitative real-time PCR of fibrosis markers, ESECT-7; type: cell-based, human; details: 24 hours, 20-25 μM DIM-C-pPhOH, 5-10 μM DIM-C-pPhOH-3-Cl-5-OCH3, vs DMSO control, FIG. 5C
Description: Quantitative real-time PCR: Total RNA was isolated from cultured cells according to the manufacturer's instructions (Zymo Research, Irvine, CA). The concentration and purity of the RNA samples were determined using a nanodrop spectrophotometer. Total RNA was reverse transcribed using iTaq Universal SYBR Green One-Step Kit (Thermo Fisher Scientific, Grand Island, NY) using the manufacturer's protocol with the CFX384 real-time PCR System (Bio-Rad). The comparative cycle threshold method was used for relative quantitation of samples. Values for each gene were normalized to expression levels of TATA-binding protein. The sequences of the primers used for real-time PCR included the following: α-SMA, 5′-GGCCGAGATCTCACTGACTAC-3′ (sense, SEQ ID NO. 13) and 5′-TTC ATG GAT GCC AGC AGA-3′ (antisense, SEQ ID NO. 14); COL1A1, 5′-CAG CCG CTT CAC CTA CAG C-3′ (sense, SEQ ID NO. 15) and 5′-TTTTGTATTCAATCAGTGTCTTGCC-3′ (antisense, SEQ ID NO. 16); CTGF, 5′-TTGGCCCAGACCCAACTATG-3′(sense, SEQ ID NO. 17) and 5′-CAGGAGGCGTTGTCATTGGT-3′ (antisense, SEQ ID NO. 18); FN, 5′-GGG AGC CTC GAA GAG C-3′ (sense 19) and 5′-AACAAGTACAAACCAACGCA-3′ (antisense, SEQ ID NO. 20) and TATA-binding protein, 5′-GATCAGAACAACAGCCTGCC-3′ (sense, SEQ ID NO. 21) and 5′-TTCTGAATAGGCTGTGGGGT-3′ […].

Ishikawa cells = assay: Expression of fibrosis markers in Ishikawa cells; type: cell-based; details: 24 hours, FIG. 6D

T2 sequence (P22736 with tags, fused parts or gaps): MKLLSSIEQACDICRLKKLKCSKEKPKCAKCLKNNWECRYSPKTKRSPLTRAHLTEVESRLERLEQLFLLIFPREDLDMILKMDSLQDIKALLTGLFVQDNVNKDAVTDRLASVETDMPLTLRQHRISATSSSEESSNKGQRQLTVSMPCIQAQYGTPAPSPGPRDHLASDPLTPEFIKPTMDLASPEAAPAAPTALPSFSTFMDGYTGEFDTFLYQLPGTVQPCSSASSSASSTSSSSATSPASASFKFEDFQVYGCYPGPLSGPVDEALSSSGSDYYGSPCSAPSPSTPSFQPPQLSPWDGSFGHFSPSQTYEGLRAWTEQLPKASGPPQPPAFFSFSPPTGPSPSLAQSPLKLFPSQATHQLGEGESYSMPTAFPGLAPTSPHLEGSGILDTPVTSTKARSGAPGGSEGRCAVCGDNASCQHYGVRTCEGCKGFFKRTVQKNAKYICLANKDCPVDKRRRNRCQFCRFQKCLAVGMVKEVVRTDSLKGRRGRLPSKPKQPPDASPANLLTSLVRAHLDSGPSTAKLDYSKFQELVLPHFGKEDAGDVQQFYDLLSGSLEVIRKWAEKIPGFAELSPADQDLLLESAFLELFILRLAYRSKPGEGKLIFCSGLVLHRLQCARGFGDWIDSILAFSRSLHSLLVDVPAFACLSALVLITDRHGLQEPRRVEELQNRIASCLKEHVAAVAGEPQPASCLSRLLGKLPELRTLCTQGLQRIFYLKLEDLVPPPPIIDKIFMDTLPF
T1 sequence (P22736 whole entry, species assumed): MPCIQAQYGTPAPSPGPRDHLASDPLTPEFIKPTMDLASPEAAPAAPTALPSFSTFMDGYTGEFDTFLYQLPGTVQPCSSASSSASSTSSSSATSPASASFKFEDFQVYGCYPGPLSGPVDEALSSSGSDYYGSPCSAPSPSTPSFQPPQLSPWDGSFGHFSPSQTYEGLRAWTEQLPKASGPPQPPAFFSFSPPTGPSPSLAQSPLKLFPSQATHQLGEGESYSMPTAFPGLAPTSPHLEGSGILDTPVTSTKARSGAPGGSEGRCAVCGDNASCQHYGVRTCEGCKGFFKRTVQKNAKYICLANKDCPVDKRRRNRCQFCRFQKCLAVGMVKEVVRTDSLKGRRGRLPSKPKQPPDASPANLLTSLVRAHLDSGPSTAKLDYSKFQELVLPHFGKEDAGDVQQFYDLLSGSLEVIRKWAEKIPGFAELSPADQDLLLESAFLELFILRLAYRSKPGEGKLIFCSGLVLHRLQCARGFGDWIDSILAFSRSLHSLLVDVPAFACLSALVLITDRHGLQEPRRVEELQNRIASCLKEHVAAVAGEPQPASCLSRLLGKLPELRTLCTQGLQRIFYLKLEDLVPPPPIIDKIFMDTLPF
T3 sequence (P12813 whole entry): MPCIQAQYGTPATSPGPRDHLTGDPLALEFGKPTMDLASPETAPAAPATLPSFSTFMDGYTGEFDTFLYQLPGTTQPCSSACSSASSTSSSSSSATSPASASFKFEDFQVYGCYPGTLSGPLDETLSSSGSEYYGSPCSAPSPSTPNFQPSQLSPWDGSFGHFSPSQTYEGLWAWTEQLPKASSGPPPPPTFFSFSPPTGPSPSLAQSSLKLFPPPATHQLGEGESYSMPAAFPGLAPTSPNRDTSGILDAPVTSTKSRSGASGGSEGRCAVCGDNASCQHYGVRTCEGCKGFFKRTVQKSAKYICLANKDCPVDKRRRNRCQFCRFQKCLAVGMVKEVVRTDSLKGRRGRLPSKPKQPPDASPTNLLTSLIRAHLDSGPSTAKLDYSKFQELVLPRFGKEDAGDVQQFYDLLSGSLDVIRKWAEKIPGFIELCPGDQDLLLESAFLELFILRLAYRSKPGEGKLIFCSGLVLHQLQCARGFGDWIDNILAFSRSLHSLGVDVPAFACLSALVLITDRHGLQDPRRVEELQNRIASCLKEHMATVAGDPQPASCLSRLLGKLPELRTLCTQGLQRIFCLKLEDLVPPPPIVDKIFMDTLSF

For `Oc1c(Br)cc(C(c2c[nH]c3ccccc23)c2c[nH]c3ccccc23)cc1Br` [4-OH-3,5-Br2], which “intrinsic transcriptional activity of NR4A1” value (NR4A1 [1]) is on record?
Its value is “inhibited the intrinsic transcriptional activity”.

And the “intrinsic transcriptional activity of GAL4-NR4A1” value (GAL4-NR4A1)?
The value was “inhibited the intrinsic transcriptional activity”.

With `CCCCCCCC(=O)c1c(O)cc(O)cc1CC(=O)OCC` [cytosporone β] as the compound, how does the TGFβ-induced fibrosis (NESC and EESC cells) read?
Its TGFβ-induced fibrosis is “inhibited TGFβ-induced fibrosis”.

Which results are given for `Oc1ccc(C(c2c[nH]c3ccccc23)c2c[nH]c3ccccc23)cc1Cl` [4-OH-3-Cl, 1,1-bis(3′-indolyl)-1-(3-chloro-4-hydroxyphenyl)methane]?
intrinsic transcriptional activity of NR4A1 (NR4A1 [1]): inhibited the intrinsic transcriptional activity; intrinsic transcriptional activity of GAL4-NR4A1 (GAL4-NR4A1): inhibited the intrinsic transcriptional activity

Which “Annexin V staining (apoptosis)” value (ESECT-7 cells [2]) does the source give for `Oc1ccc(C(c2c[nH]c3ccccc23)c2c[nH]c3ccccc23)cc1` [DIM-C-pPhOH, 1,1-bis(3′-indolyl)-1-(p-hydroxyphenyl)methane] here?
Its value is “induced apoptosis”.

What about the “Annexin V staining” value (NEM cells [3]) of the same compound?
Its value is “did not enhance”.

And the “Annexin V staining (apoptosis)” value (ESECT-40 cells [4])?
Its value is “induced apoptosis”.

What about the “NR4A1 agonist activity, induction of genes involved in glucose uptake” value (NR4A1 [5]) of the same compound?
The value was “worked as NR4A1 agonists”.

What about the “growth of ESECT-40 cells” value (ESECT-40 cells [6]) of the same compound?
Its value is “inhibited cell growth”.

What about the “intrinsic transcriptional activity of NR4A1” value (NR4A1 [1]) of the same compound?
The value was “inhibited the intrinsic transcriptional activity”.

And the “growth of normal endometrial NEM cells” value (NEM cells [7])?
Its value is “did not suppress the growth”.

What about the “expression of fibrosis markers (α-SMA, COL1A1, FN, CTGF)” value (IHEECs) of the same compound?
The value was “decreased expression of fibrosis markers”.

What about the “intrinsic transcriptional activity of GAL4-NR4A1” value (GAL4-NR4A1) of the same compound?
The value was “inhibited the intrinsic transcriptional activity”.

And the “levels of the cleaved form of PARP and Bax” value (NEM cells [8]; 25 μM DIM-C-pPhOH, 10 μM DIM-C-pPhOH-3-Cl-5-OCH3, vs DMSO control, FIG. 4D)?
Its value is “did not enhance”.

What about the “cMyc and EGFR expression” value (NEM cells [8]; 15-25 μM DIM-C-pPhOH, 5-10 μM DIM-C-pPhOH-3-Cl-5-OCH3, vs DMSO control, FIG. 4B) of the same compound?
Its value is “did not decrease”.

What about the “growth of ESECT-7 cells” value (ESECT-7 cells [9]) of the same compound?
The value was “inhibited cell growth”.

And the “expression of SMA levels” value (ESECT-7 cells [10])?
The value was “decreased expression of SMA levels”.

What about the “mRNA levels of fibrosis markers (FN, Col1A1, CTGF)” value (ESECT-7 cells [11]) of the same compound?
The value was “decreased mRNA levels”.

What about the “expression of fibrosis markers (α-SMA, COL1A1, FN, CTGF)” value (Ishikawa cells) of the same compound?
Its value is “decreased expression of fibrosis markers”.
